Data: ChEMBL document CHEMBL1121545, “Synthesis of potential inhibitors of hypoxanthine-guaine phosphoribosyltransferase for testing as antiprotozoal agents. 2. 1-Substituted hypoxanthines” (1980)
Activity calls are given as the source filed them. No cut-off for these calls is given here.

How the values were obtained:
[1] = biological target: T1, Hypoxanthine-guanine phosphoribosyltransferase (Homo sapiens) (UniProt P00492); experiment: Compound was tested for the inhibition of Hypoxanthine-Guanine Phosphoribosyltransferase (from H.Ep.2 cells); no activity
T1 sequence (whole entry): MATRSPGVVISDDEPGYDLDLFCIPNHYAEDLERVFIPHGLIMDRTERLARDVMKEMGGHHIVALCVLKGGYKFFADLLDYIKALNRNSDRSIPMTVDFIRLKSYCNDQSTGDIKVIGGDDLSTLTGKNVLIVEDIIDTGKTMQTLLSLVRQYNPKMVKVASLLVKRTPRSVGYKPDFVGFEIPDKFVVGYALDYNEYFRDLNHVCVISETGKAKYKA

[2] = organism: Mus musculus; experiment: Compound was tested for ability to extend the life span of Plasmodium berghei infected mice (Mus musculus); no activity; type: functional, organism-based
[3] = test system: Mus musculus; experiment: Compound was tested for the effective dose required for the inhibition of Trypanosoma rhodesiense in mice at 106 mg/kg dose in mice; (1 mice survived of 5 treated); type: functional
[4] = test system: Mus musculus; experiment: Compound was tested for the effective dose required for the inhibition of Trypanosoma rhodesiense in mice at 212 mg/kg dose in mice; (1 mice survived of 5 treated); type: functional
[5] = test system: Mus musculus; experiment: Compound was tested for the effective dose required for the inhibition of Trypanosoma rhodesiense in mice at 424 mg/kg dose in mice; (2 mice survived of 5 treated); type: functional

Row | Activity [1] | Compound | Activity [2] | Activity [3] | Survivals [4] | Survivals [5]
1 | inactive | OCCOc1[nH]cnc2ncnc1-2 | inactive |  |  | 
2 | inactive | Nc1ccc(Cn2cnc3ncnc-3c2O)cc1 | inactive |  |  | 
3 | inactive | NCCn1cnc2ncnc-2c1O | inactive |  |  | 
4 | inactive | O=C(CBr)Nc1ccc(Cn2cnc3ncnc-3c2O)cc1 | inactive |  |  | 
5 | inactive | O=[N+]([O-])c1ccc(Cn2cnc3ncnc-3c2O)cc1 | inactive |  |  | 
6 | inactive | Oc1c2ncnc-2ncn1CCCl | inactive |  |  | 

Second part, the compound before the results:

Row | Compound | Activity [1] | Activity [2] | Activity [3] | Survivals [4] | Survivals [5]
7 | [N-]=[N+]=NCCn1cnc2ncnc-2c1O | inactive | inactive |  |  | 
8 | O=C(Nc1ccc(Cn2cnc3ncnc-3c2O)cc1)c1ccc(Cl)cc1 | inactive | inactive |  |  | 
9 | O=C(Nc1ccc(Cn2cnc3ncnc-3c2O)cc1)c1cccc(S(=O)(=O)F)c1 | inactive | inactive |  |  | 
10 | O=C(CBr)NCCn1cnc2ncnc-2c1O |  |  | 1 | 1 | 2
11 | O=C(Nc1ccc(Cn2cnc3ncnc-3c2O)cc1)c1ccc(S(=O)(=O)F)cc1 | inactive | inactive |  |  | 
